Measured values from a melting point compilation (Tetko et al.; mined from patent text by program, amines drawn as free bases though some values may be those of a salt).

Row | melting point [°C] | SMILES
1 | 231 to 233 | O=C1CCC(N2Cc3c(OCc4ccc(CNC5CCOCC5)cc4)cccc3C2=O)C(=O)N1 (stereo not drawn)
2 | 83 to 84 | CCOc1cccc(Oc2cccnc2C#N)c1
3 | 194 to 196 | C[C@@H]1CN(C(=O)[C@@](C)(O)C(F)(F)F)[C@@H](C)CN1S(=O)(=O)c1ccc(C(=O)O)cc1
4 | 96 | O=S(=O)(CC(Cl)(Cl)Cl)c1cc(Cl)ccc1Cl
5 | 109 | CCOC(=O)c1ccc(CCC=O)cc1
6 | 116 to 118 | COc1ccc2cc(C(=O)CCCCC(=O)N(C)O)ccc2c1
7 | 218 to 220 | COc1ccc(-c2cc3nc(N4CCOCC4)c4ccccc4c3nn2)cc1
8 | 143 to 145 | CC(C(=O)NC(=O)OCC(F)(F)F)(c1ccccc1)c1ccccc1
9 | 73 to 75 | O=C(CC(Cc1cccc2ccccc12)C(=O)O)NCCc1c[nH]c2ccccc12 (stereo not drawn)
10 | 263 to 264 | Cc1cc2c(s1)c(=O)c(S(C)=O)cn2C (stereo not drawn)
11 | 229 | COc1ccc(N2CCCCN(CCCCNC(=O)c3ccc(NC(=O)c4ccc(Cl)cc4)cc3)CC2)c(OC)c1
12 | 130 | CCN(CC)C(=O)CCS(=O)c1cc(-c2ccccc2)nc2ccccc12 (stereo not drawn)
13 | 149 to 150 | CC(=O)N1CCN(Cc2cnc(-c3cc4cccc(NS(=O)(=O)c5cccs5)c4[nH]3)s2)CC1
14 | 132 to 134 | Cc1nc2n(c1CC#N)CCCC2OCc1ccccc1 (stereo not drawn)
15 | > 260 | O=C1c2ccccc2C(=O)c2sc(-c3cccs3)nc21
16 | 62.5 to 64.3 | N#Cc1ccc(CCC2CCC(=O)CC2)cc1
17 | 146 to 148 | BrCc1ccc2nc(-c3ccccc3)c(-c3ccccc3)nc2c1
18 | 217 to 218 | O=C(NCCOc1ccc(CC(Oc2ccccc2)C(=O)O)cc1)c1ccc(-c2ccc(C(F)(F)F)cc2)cc1 (stereo not drawn)
19 | 117 to 119 | N=Cc1ccccc1[N+](=O)[O-]
20 | 184 to 185 | N#Cc1ccc(C(=O)NNc2ccc(NC(=S)Nc3ccccc3)cc2)cc1
21 | 86 to 88 | COc1ccc(C(=O)c2cccnc2)cc1[N+](=O)[O-]
22 | 147 | CC(C)CCC(=O)OC1c2ccccc2C(=O)N1c1ccc2ccc(Cl)nc2n1 (stereo not drawn)
23 | 156 to 158 | CC(=Cc1ccccc1)c1ccc2c(c1)C(C)(C)CCS2(=O)=O
24 | 82 to 83 | Cc1cnc(C)c(Cl)c1N
25 | 129 to 130 | O=C(N[C@H]1CCOC1=O)OCc1ccccc1
26 | 70 | C=CCC1C2CCC(C2)C1NC(=O)OCc1ccccc1 (stereo not drawn)
27 | 192 to 193 | COc1cc(COc2cc(C(=O)O)n(-c3ccccc3)n2)ccc1OCc1nc(-c2ccccc2)oc1C

Row | melting point [°C] | SMILES
28 | 176 to 179 | NC(=O)Nc1ccc(C(O)(C(F)(F)F)C(F)(F)F)cc1
29 | 181 to 183 | CC(C)NS(=O)(=O)c1cc(Br)c(N)c(Br)c1
30 | 132 | CNC(=O)c1ccc(F)c2c1CC(N(CCCc1c[nH]c3ccc(F)cc13)C1CCC1)CO2 (stereo not drawn)
31 | 142 to 144 | CCOC(=O)C(C#N)=Cc1cc(OC)c(C(=O)OC)c(OC)c1
32 | 155 | COc1ccc(S(=O)(=O)N2C(=O)C(c3ccccc3OC)(N3Cc4ccccc4C[C@H]3C(=O)N(C)C)c3cc(Cl)c(Cl)cc32)c(OC)c1 (stereo partly drawn)
33 | 190 to 191 | Cc1cc(CNC2CCCN(C(=O)c3ccc(Nc4nccc(Nc5ccc(F)cc5)n4)cc3)C2)no1 (stereo not drawn)
34 | 58 to 64 | Brc1ccc2c(c1)CCC=C2n1ccnc1
35 | 49 | CCCCc1ccc(-c2ccc(CCc3ccc(OC)cc3)cc2)c(F)c1
36 | 169 to 172 | CC(C)(C)C1=C(CO)N=NC1=O
37 | 143 to 145 | CCC(C(C)=CC(CNC(=O)Cc1n[nH]c(=O)c2ncccc12)=NO)[N+](=O)[O-] (stereo not drawn)
38 | 168 to 172 | N=C(N)NCCCOc1ccc2c(c1)CC(CCC(=O)O)C(=O)N2 (stereo not drawn)
39 | 105 to 106 | C=CCNC(=O)N(N(CCCl)S(C)(=O)=O)S(C)(=O)=O
40 | 109 to 111 | O=C1NC(=O)C(=Cc2ccc(N3CCC4(CC3)OCCO4)c(Br)c2)S1
41 | 190 to 193 | NCCCCCCCCC(=O)O
42 | 148 to 152 | Cc1cc(C)cc(-c2nc3ncccc3o2)c1
43 | 116 to 118 | Cc1cc([N+](=O)[O-])ccc1Oc1ccc(C(C)(C)c2cccc(C(C)(C)c3ccc(Oc4ccc([N+](=O)[O-])cc4C)cc3)c2)cc1
44 | 155 to 158 | Cn1ncnc1-c1ccc(C(=O)N2Cc3cccn3Cc3ccccc32)cc1
45 | 122 | O=C(O)Cc1ccc(COc2cccc(-c3c(-c4ccccc4)cnc4c(C(F)(F)F)cccc34)c2)cc1
46 | 148 to 150 | CN(C)C(=O)Nc1ccc(OCC(=O)c2ccccc2)c(Cl)c1
47 | 140 to 142 | CCOC(=O)c1cc2cc(O)ccc2n1C
48 | 148 to 153 | Cc1ccc2c(NCc3ccccc3)c3c(nc2c1)CCCC3O (stereo not drawn)
49 | 89 to 90 | CC(C)(C)C(O)(COc1ccc(F)cc1)C(F)n1cncn1 (stereo not drawn)
50 | 144 to 145 | COc1ccc(CO)cc1OCc1nc(-c2ccccc2)oc1C
51 | 55 to 60 | CCCCCCCCCCCCCCCCCCOc1cccc(NCC(=O)OCc2ccccc2)c1
52 | 215 | COc1ccc2ccc(N3C(=O)C4=C(SCC(OC)CS4)C3OC(=O)N3CCN(C)CC3)nc2n1 (stereo not drawn)
53 | 80 to 83 | N=C(NC(=O)c1ccc2ccccc2c1)c1ccc(N2CC(CN3CCN(CCC(=O)O)CC3)OC2=O)cc1 (stereo not drawn)
54 | 195 | CCOc1ccc2c(c1)n(C1CCCCC1)c(=O)n2Cc1ccc(NC(=NC#N)NC)cc1OC

More lines, now with the values behind:

Row | SMILES | melting point [°C]
55 | CCNC(=NS(=O)(=O)c1ccc(Cl)cc1)N1CC(c2ccccc2)C(c2ccc(Cl)cc2)=N1 (single isomer, unassigned; (-)) | 172 to 175
56 | O=C1Nc2ccc(Cl)cc2C1(O)c1ccccc1OCc1ccccc1 (stereo not drawn) | 197
57 | O=C(c1ccccc1)c1cc(Cl)ccc1CCCN1C(=O)c2ccccc2C1=O | 94 to 97
58 | Nc1ccccc1C(=O)NCCCCn1ccnc1 | 91 to 93
59 | COC(=O)N[C@H](C(=O)N[C@@H](Cc1ccccc1)[C@H](O)CN1C[C@H]2CCCC[C@H]2C[C@H]1C(=O)NC(C)(C)C)C(C)(C)S(C)(=O)=O | 190 to 194
60 | NC(CCCCNC(=O)OCc1ccccc1)C(=O)NC1c2ccccc2-c2ccccc21 (stereo not drawn) | > 280
61 | O=C(NC1CC1)c1cc(Nc2nc(Cl)nc3ccoc23)[nH]n1 | 247
62 | O=C(O)Cc1ccccc1OCCCc1cn(-c2ccc(C(F)(F)F)cn2)nc1C1CCCCC1 | 127 to 128
63 | COc1ccc2c(OCc3cc(OC)c(F)cc3Br)cccc2c1 | 138 to 142
64 | CN(C)Cc1ccc(SC2CCNCC2)cc1 | 52
65 | O=C1CS(=O)(=O)c2ccccc21 | 133 to 134
66 | CCCn1nc2c(N)nc3cnccc3c2c1CCNC(=O)c1ccc(F)cc1 | 317 to 318
67 | CCCN(Cc1ccc(-c2ccccc2-c2nnnn2C(c2ccccc2)(c2ccccc2)c2ccccc2)cc1)c1ncncc1C(=O)OCC | 100 to 103
68 | Cc1ccc(C(=O)Nc2ccc(N3CCOCC3)c(C(F)(F)F)c2)cc1Nc1nccc(-c2cccnc2)n1 | 216 to 218
69 | Fc1cccc(CC[C@H]2CNCCN2)c1 | 95 to 99
70 | c1cc(OC[C@H]2CO2)c2cccnc2c1 | 79 to 81
71 | Cc1noc(NS(=O)(=O)c2ccccc2-c2ccc(-c3ncco3)cc2-c2ncco2)c1C | 108 to 113
72 | COc1cc2c(cc1OC)-c1c(-c3ccccc3)sc(=N)n1CC2 | 123 to 125
73 | Cc1cccc(-c2[nH]c(C(C)C)nc2-c2cccc(-c3ccc(C(N)=O)cn3)c2)n1 | 138 to 144
74 | CCOC(=O)c1cc(C(C)(C)C)n(-c2ccc(S(C)(=O)=O)cc2)n1 | 175 to 178
75 | CC(C)c1ccccc1SCc1cn(-c2ccc(S(C)(=O)=O)cc2)c(-c2ccc(Cl)cc2)n1 | 68 to 70
76 | CCS(=O)(=O)c1ccc(-n2cncc2-c2ccc([N+](=O)[O-])cc2)cc1 | 190 to 194

Row | SMILES | melting point [°C]
77 | CCOC(=O)C(O)=CC=C(SCc1ccccc1)C(=O)OCC | < 40
78 | COc1ccc(C=C2SC(=S)N(CC(=O)O)C2=O)cc1 | 250 to 253
79 | COc1c(S(=O)(=O)N2CCC[C@H]2C(=O)O)ccc(Cl)c1COc1cccc2c(C)cc(C)nc12 | 134 to 138
80 | O=C1CCc2c(Cl)cc(Cl)c(I)c21 | 170 to 172
81 | CNc1nc(N=[N+]=[N-])ncc1C#N | 225 to 230
82 | CC(=O)c1nc(-c2ccncc2C)[nH]c1C | 185 to 187
83 | Cc1cc(C(=O)NC2=NCCC2(c2ccccc2)c2ccccc2)[nH]n1 | 213 to 215
84 | CCCCCCC(C)(C)c1ccc(C2=CC(O)CCC2)c(O)c1 (stereo not drawn) | 87 to 88
85 | NS(=O)(=O)Cc1ccccc1OC(F)(F)F | 127
86 | CC(=O)OCCc1ccc(C2=NNC(=O)CC2)cc1 | 94 to 96
87 | N#Cc1cc(NC(=O)c2cc3ccccc3o2)ccc1OC1CCN(Cc2ccccc2)CC1 | 175
88 | O=C1Nc2ccc(Cl)cc2C2(c3cccs3)OCCN12 (stereo not drawn) | 193 to 194
89 | CCOC(=O)NN=C(c1ccc(Cl)cc1)c1ccc(CSC)cc1 | 105 to 109
90 | COc1cccc2c1SCCC2=O | 110
91 | Cc1cn2cc(NC(=O)c3cc4cc(F)ccc4n3Cc3cccc(F)c3)ccc2n1 | 200 to 203
92 | CN(O)C(=O)c1ccc(CCCCc2ccncc2)cc1 | 148 to 150
93 | N#Cc1cc(C(=O)NNC(=O)c2occc2-c2ccccc2-c2ccccc2)ccc1O | 159 to 162
94 | COc1cc2ncnc(N3CCC(CN4C=CC(C)=NS4(=O)=O)CC3)c2cc1OC | 203 to 207
95 | CCc1cc2[nH]ccc(=O)c2c(CC)n1 | 207 to 208
96 | COC(=O)Nc1nc2cc(SCC3CC3(Cl)Cl)ccc2[nH]1 (stereo not drawn) | 211 to 213
97 | CC1CNC(CN(CC(=O)O)C(=O)c2ccccc2)c2ccccc21 (stereo not drawn) | 157
98 | Cc1n[nH]c(=O)c(-c2c(F)cccc2Cl)c1-c1ccc(Cl)nc1 | 166 to 167
